≈ marks a conversion by molar mass, not a printed value.
What was measured:
[1] = Acute toxicity, single intravenous administration, 14 days survival; settings: mouse, in vivo, ddy mice, single i.v., Behrens-Karber method
Experimental: UCT4-B was intravenously administered once to ddy mice weighing about 20 g (each group having 5 animals) and then the survival state of the animals was monitored for 14 days following the administration. Then LD50 of the compound was calculated based on the mortality of mice in each group in accordance with the Behrens-Karber method.

[2] = system: Enterococcus faecium ATCC 10541; assay: Antibacterial activity, agar dilution method (pH 7.0); type: cell-based; settings: ATCC10541, read-out: minimum growth inhibition concentration (MIC)
Source text: (§1) The antibacterial activities of UCT4-B on four bacteria (i.e., Staphylococcus aureus, Enterococcus faecium, Bacillus subtilis, Klebsiella pneumoniae) were examined by the agar dilution method (pH 7.0)[refer to "Biseibutsu Jikken Manyuaru (Manual of The Microbial Experiments)" 80, Kodansha (1986)].
(§2) The results are shown in terms of the minimum growth inhibition concentration (MIC) in Table 2.

[3] = system: Bacillus subtilis ATCC 10707; assay: as above; type: cell-based; settings: ATCC10707, read-out: minimum growth inhibition concentration (MIC)
Source text: as §1, §2

[4] = system: Klebsiella pneumoniae ATCC 10031; assay: as above; type: cell-based; settings: ATCC10031, read-out: minimum growth inhibition concentration (MIC)
Source text: as §1, §2

[5] = system: Staphylococcus aureus ATCC 6538P; assay: as above; type: cell-based; settings: ATCC6538P, read-out: minimum growth inhibition concentration (MIC)
Source text: as §1, §2

[6] = system: lymphocytic leukemia p338 tumor cells; assay: Effect on lymphocytic leukemia (life-prolonging effect); type: in vivo, CDF1 male mice; settings: i.p., 24 hours after i.p. transplantation
Experimental: 1×10^6 lymphocytic leukemia p338 tumor cells were intraperitoneally transplanted into CDF1 male mice weighing 22 g (each group having 5 animals). 24 hours after the trans- plantation, 0.2 ml of a solution of UCT4-B in physiological saline or 0.2 ml of physiological saline (the control group) was intraperitoneally administered to the animals.
The results of the test are expressed in terms of T/C (%) calculated by dividing the average survival days of each test group (T) with that of the control group (C).

## CC1C(O)C(=O)C2(C)C(CO)=CCCC2C1(C)CC(O)C1(C(=O)C=O)CO1 (stereo not shown) [UCT4-B]
[1]
  LD50 at 336 h: ≥ 50 mg/kg
Solubility; acetonitrile
  Solubility: soluble
Solubility; chloroform
  Solubility: highly soluble
Solubility; ethyl acetate
  Solubility: highly soluble
Solubility; hexane
  Solubility: insoluble
Solubility; methanol
  Solubility: highly soluble
Solubility; water
  Solubility: soluble
[2]
  MIC: 4.1 µg/mL (≈ 10.8 µM)
[3]
  MIC: 8.3 µg/mL (≈ 21.8 µM)
[4]
  MIC: 2.1 µg/mL (≈ 5.52 µM)
[5]
  MIC: 4.1 µg/mL (≈ 10.8 µM)
[6]; 3 mg/kg
  Life-prolonging effect (T/C %): 124%
[6]; 6 mg/kg
  Life-prolonging effect (T/C %): 131%
[6]; 12 mg/kg
  Life-prolonging effect (T/C %): 127%
[6]; 25 mg/kg
  Life-prolonging effect (T/C %): 137%
[6]; 50 mg/kg
  Life-prolonging effect (T/C %): 141%

From patent US5151352A, “Process for producing diterpene compounds” (Kyowa Hakko Kogyo Co., Ltd., priority 1990, dated 1992)
